For twelve compounds, IC50 results are on record in the Kinase Knowledgebase extract (Sharma et al. 2016).

This test addresses EGFR (human) (UniProt P00533). To be noted: kb.

The structures appear in SMILES notation.

Sequence of EGFR (human) (P00533 whole entry, looked up): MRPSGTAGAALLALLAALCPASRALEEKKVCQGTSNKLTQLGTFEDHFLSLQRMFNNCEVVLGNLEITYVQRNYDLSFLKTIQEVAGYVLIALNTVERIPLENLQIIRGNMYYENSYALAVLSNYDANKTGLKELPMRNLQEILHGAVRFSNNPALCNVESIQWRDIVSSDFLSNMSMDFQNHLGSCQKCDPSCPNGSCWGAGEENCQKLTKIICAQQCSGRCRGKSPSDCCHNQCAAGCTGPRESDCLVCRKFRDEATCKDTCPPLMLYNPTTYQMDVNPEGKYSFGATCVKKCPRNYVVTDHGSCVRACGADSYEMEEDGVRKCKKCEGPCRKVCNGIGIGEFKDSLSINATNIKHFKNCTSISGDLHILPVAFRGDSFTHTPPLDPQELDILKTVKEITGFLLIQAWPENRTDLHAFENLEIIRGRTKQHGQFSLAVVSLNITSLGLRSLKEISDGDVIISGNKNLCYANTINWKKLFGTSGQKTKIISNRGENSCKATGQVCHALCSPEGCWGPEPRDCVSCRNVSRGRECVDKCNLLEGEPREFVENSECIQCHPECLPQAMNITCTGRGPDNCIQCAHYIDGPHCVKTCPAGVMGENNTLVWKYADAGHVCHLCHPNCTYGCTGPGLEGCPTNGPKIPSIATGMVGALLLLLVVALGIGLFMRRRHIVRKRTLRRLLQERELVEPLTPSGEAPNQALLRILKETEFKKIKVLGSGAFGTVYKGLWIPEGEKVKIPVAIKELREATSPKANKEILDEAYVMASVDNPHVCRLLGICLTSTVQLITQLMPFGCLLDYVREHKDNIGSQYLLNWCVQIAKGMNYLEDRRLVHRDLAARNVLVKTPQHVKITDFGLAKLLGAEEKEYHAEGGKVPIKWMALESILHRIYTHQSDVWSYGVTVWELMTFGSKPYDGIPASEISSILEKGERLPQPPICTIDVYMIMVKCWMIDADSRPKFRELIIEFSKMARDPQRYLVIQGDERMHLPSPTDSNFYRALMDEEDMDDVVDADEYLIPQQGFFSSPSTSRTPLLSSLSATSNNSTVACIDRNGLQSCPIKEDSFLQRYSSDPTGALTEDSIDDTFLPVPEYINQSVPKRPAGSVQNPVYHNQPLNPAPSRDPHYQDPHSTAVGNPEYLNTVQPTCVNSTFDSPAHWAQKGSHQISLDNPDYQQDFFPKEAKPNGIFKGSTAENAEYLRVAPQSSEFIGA

`COCC(=O)N1C[C@@H](O)C[C@@H]1COc1cc(OC)cc2ncnc(Nc3ccc(F)c(Cl)c3)c12` gave an IC50 of 288 nM.

On to `COc1cc(OC[C@@H]2C[C@H](O)CN2C(=O)CN(C)C)c2c(Nc3ccc(F)c(Cl)c3)ncnc2c1`, for which the IC50 worked out at 112 nM.

`COc1cc(OC[C@H]2C[C@@H](O)CN2C(=O)CO)c2c(Nc3ccc(F)c(Cl)c3)ncnc2c1`: the IC50 is 118 nM.

In the case of `O=C(CO)N1CCC[C@@H]1COc1cc(OCCO)cc2ncnc(Nc3ccc(F)c(Cl)c3)c12`, the IC50 amounted to 128 nM.

As for `COc1cc(OC[C@H]2CCCN2C(=O)CN(C)C)c2c(Nc3ccc(F)c(Cl)c3)ncnc2c1`, the IC50 amounted to 138 nM.

On to `COc1cc(OC[C@@H]2C[C@@H](O)CN2C(=O)CO)c2c(Nc3ccc(F)c(Cl)c3)ncnc2c1`, for which the IC50 stood at 156 nM.

As for `COc1cc(OC[C@H]2C[C@H](O)CN2C(C)=O)c2c(Nc3ccc(F)c(Cl)c3)ncnc2c1`, the IC50 amounted to 75 nM.

Compound `COc1cc(OC[C@@H]2CCCN2C(=O)CN2CCCC2)c2c(Nc3ccc(F)c(Cl)c3)ncnc2c1` showed an IC50 of 130 nM.

`CCOCCOc1cc(OC[C@H]2CCCN2C(=O)CO)c2c(Nc3ccc(F)c(Cl)c3)ncnc2c1` yielded an IC50 of 99 nM.

`COc1cc(OC[C@@H]2CCCN2C(=O)CN(C)C)c2c(Nc3ccc(F)c(Cl)c3)ncnc2c1` gave an IC50 of 141 nM.

Turning to `COc1cc(OC[C@H]2CCCN2C(C)=O)c2c(Nc3ccc(F)c(Cl)c3)ncnc2c1`, the IC50 is 28 nM.

For the compound `COc1cc(OC[C@H]2CCCN2C(=O)CO)c2c(Nc3ccc(F)c(Cl)c3)ncnc2c1`, the IC50 turned out to be 91 nM.

What is called IC50 is the concentration at which inhibition is half-maximal. High values mean a need for much substance, low ones inhibition by little substance.
